Measured values taken from US20240082296A1, “TREATMENT OF MUSCLE ATROPHY USING DEXTRAN SULFATE” (TX MEDIC AB, priority 2020, published 2024).

Columns and labels:
ALS patients = test: serum metabolites by HPLC pre- and post-treatment in ALS patients (Example 3); format: in vivo, human
Source text: The objective of this Example was to evaluate the effect of repeated dextran sulfate administration on the concentrations of serum metabolites in serum samples from a cohort of Swedish ALS patients who had participated in the trial entitled ‘A single-centre, open single-arm study where the safety, tolerability and efficacy of subcutaneously administered ILB® will be evaluated in patients with Amyotrophic Lateral Sclerosis’. Using a longitudinal design, this study aimed to determine the changes of selected serum metabolites in each ALS patient before and after weekly dextran sulfate treatment. Changes in the measured metabolites indicate the biochemical response of the patient to dextran sulfate that is underpinning potential disease modification and the mechanisms of action of the drug in this patient population.
After an initial screening visit, patients had five weekly dosing of a single dextran sulfate (ILB®, Tikomed AB, Viken, Sweden, WO 2016/076780) injection of 1.0 mg/kg body weight in saline into the subcutaneous fat of the lower abdomen.
Peripheral venous blood samples were been collected from the patients after at least 15 minutes of complete rest, using the standard tourniquet procedure, from the antecubital vein into a single VACUETTE® polypropylene tube containing serum separator and clot activator (Greiner-Bio One GmbH, Kremsmunster, Austria). After 30 minutes at room temperature, blood withdrawals were centrifuged at 1,890×g for 10 min and the resulting serum samples were stored at −20° C. until analysis.
After defrost, an aliquot of 500 μl of each serum sample was supplemented with 1 ml of HPLC-grade acetonitrile, vortexed for 60 seconds, centrifuged at the maximum speed in a top-bench centrifuge to precipitate proteins. Supernatants were washed with large volumes of HPLC-grade chloroform to remove organic solvent, centrifuged and the upper aqueous phases were transferred in different tubes, clearly labeled to identify the sample and stored at −80° C. until analyzed to determine different water-soluble compounds.
A second aliquot of about 300 μl of each serum sample was light-protected and then processed to extract fat-soluble antioxidants using a method described in detail elsewhere (Lazzarino et al., Single-step preparation of selected biological fluids for the high performance liquid chromatographic analysis of fat-soluble vitamins and antioxidants. J Chromatogr A. 2017; 1527: 43-52.). Briefly, samples were supplemented with 1 ml of HPLC-grade acetonitrile, vigorously vortexed for 60 s and incubated at 37° C. for 1 h in a water bath under agitation, to allow the full extraction of lipid soluble compounds. Samples were then centrifuged at 20,690×g for 15 min at 4 C to precipitate proteins and the clear supernatants were saved at −80° C. until the HPLC analysis of fat-soluble vitamins and antioxidants.
In deproteinized serum samples, the following water-soluble compounds were separated and quantified by HPLC, according to methods described elsewhere (Tavazzi et al., Simultaneous high performance liquid chromatographic separation of purines, pyrimidines, N-acetylated amino acids, and dicarboxylic acids for the chemical diagnosis of inborn errors of metabolism. Clin Biochem. 2005; 38: 997-1008; Romitelli et al., Comparison of nitrite/nitrate concentration in human plasma and serum samples measured by the enzymatic batch Griess assay, ion-pairing HPLC and ion-trap GC-MS: The importance of a correct removal of proteins in the Griess assay. J Chromatogr B Analyt Technol Biomed Life Sci. 2007; 851: 257-267; Amorini et al., Metabolic profile of amniotic fluid as a biochemical tool to screen for inborn errors of metabolism and fetal anomalies. Mol Cell Biochem. 2012; 359: 205-216): hypoxhantine, xanthine, uric acid, malondialdehyde (MDA), nitrite, nitrate, N-acetylaspartate (NAA), citrulline (CITR), alanine (ALA), and ornithine (ORN). […]

[1] = system: hepatocyte growth factor (HGF); test: circulating HGF after dextran sulfate injection in ALS patients (Example 2); format: in vivo, human; conditions: peak at 2.5 hours after injection; before 820±581; p<0.001
Protocol: A clinical trial in the form of a Phase IIa, single-center, open label, single-arm study where the safety, tolerability and possible efficacy of subcutaneously administered dextran sulfate was evaluated in patients with ALS of intermediate progression rate. The clinical trial was conducted at the Sahlgrenska University Hospital, Gothenburg, Sweden and was overseen and approved by the Ethics Committee of the University of Gothenburg and by the Swedish Medical Products Agency.
Dextran sulfate (Tikomed AB, Viken, Sweden, WO 2016/076780) was administered at 1 mg/kg by […] subcutaneous injection once a week for five weeks to 13 human patients suffering from ALS.
Blood samples were drawn at defined study intervals by a venous catheter into vacutainer tubes. Laboratory analyses of blood plasma were performed immediately after collection by the Clinical Chemistry Laboratory at the Sahlgrenska University Hospital.
This indicates the potential for direct myogenic, as well as indirect neurotrophic, HGF-mediated effects on muscle atrophy after dextran sulfate administration.

[2] = post- vs pre-treatment, five weekly 1.0 mg/kg s.c.

## dextran sulfate
ALS patients; [2]
  serum CITR: ameliorated
  serum MDA: decreased
  serum NAA: Significantly lower
  serum ORN/CITR ratio: ameliorated
  serum nitrate: decreased
  serum nitrite+nitrate: decreased
  serum sum of oxypurines (hypoxanthine+xanthine+uric acid): decreased
  serum uric acid: decreased
  serum α-tocopherol: ameliorated
  serum γ-tocopherol: ameliorated
ALS patients; post-treatment, equal to controls, significantly lower than pre-treatment
  circulating values of ALA: normalized
[1]
  circulating HGF, peak: 37.9 ± 14.2 ng/mL
